Results on six molecules are retold here after patent publication US20250002529A1, “NOVEL […] COMPOUNDS, PREPARATION METHODS, COMPOSITIONS AND APPLICATIONS” (Guangzhou Anobri Pharmaceutical Co. Ltd., priority 2021, published 2025).

Read-outs that look alike come from different tables or passages of the source.

The subject of one data set is SARS-CoV-2 virus. The experiment in a line: In vitro anti-SARS-CoV-2 virus assay (Vero E6 cells, viral RNA by PCR). The format is cell-based.
The format of data set [1] is in vivo, Male Wistar-Hannover rats.
[2] abbreviates: Vero E6 cells, compound final concentration 100 nM, PCR of supernatant viral RNA after 2-3 days.

As to `[2H]C1([2H])C[C@@H](C[C@@H](C#N)NC(=O)[C@@H]2[C@@H]3[C@H](CN2C(=O)[C@@H](NC(=O)C(F)(F)F)C(C)(C)C)C3(C)C)C(=O)N1` [Compound 1], the “Inhibition rate (virus replication)” value in the data set on SARS-CoV-2 virus (setting [2]) worked out at 71.5%. For the same molecule, in data set [1] (rats, dose 10 mg/kg, plasma), the “AUC0~∞” value is 1974 ng·h/mL, the Cmax is 1393 ng/mL, the T1/2 is 3.5 h and the Tmax was determined as 2 h.

For the molecule `[2H][C@@](C#N)(C[C@@H]1CCNC1=O)NC(=O)[C@@H]1[C@@H]2[C@H](CN1C(=O)[C@@H](NC(=O)C(F)(F)F)C(C)(C)C)C2(C)C` [Compound 2], the “Inhibition rate (virus replication)” value in the data set with SARS-CoV-2 virus (setting [2]) is given as 73.5%. Further, in data set [1] (rats, dose 10 mg/kg, plasma), the “AUC0~∞” value was 2325 ng·h/mL, the Cmax worked out at 1480 ng/mL, the T1/2 worked out at 4.2 h and the time of peak concentration (Tmax) was found to be 2 h.

Regarding `[2H][C@](NC(=O)C(F)(F)F)(C(=O)N1C[C@H]2[C@@H]([C@H]1C(=O)N[C@H](C#N)C[C@@H]1CCNC1=O)C2(C)C)C(C)(C)C` [Compound 16], in the data set with SARS-CoV-2 virus (setting [2]), the “Inhibition rate (virus replication)” value is recorded as 72.6%. In addition, the Cmax in data set [1] (rat, in vivo, 10 mg/kg) amounted to 1452 ng/mL. Besides, in data set [1] (rats, dose 10 mg/kg, plasma), the “AUC0~∞” value was 2294 ng·h/mL, the T1/2 worked out at 4 h and the Tmax was 2 h.

Turning to `[2H]C([2H])([2H])C(C(NC(=O)C(F)(F)F)C(=O)N1C[C@H]2[C@@H]([C@H]1C(=O)N[C@H](C#N)C[C@@H]1CCNC1=O)C2(C)C)(C([2H])([2H])[2H])C([2H])([2H])[2H]` (stereo partly shown) [Compound 32], the “Inhibition rate (virus replication)” value in the data set on SARS-CoV-2 virus (setting [2]) stood at 70.4%. In data set [1] (rats, dose 10 mg/kg, plasma), the “AUC0~∞” value is 2011 ng·h/mL, the Cmax is 1429 ng/mL, the T1/2 worked out at 3.5 h and the Tmax was found to be 2 h.

As for `O=C(OC[C@H]1O[C@@H](OC(=O)c2cc(O)c(O)c(OC(=O)c3cc(O)c(O)c(O)c3)c2)[C@H](OC(=O)c2cc(O)c(O)c(OC(=O)c3cc(O)c(O)c(O)c3)c2)[C@@H](OC(=O)c2cc(O)c(O)c(OC(=O)c3cc(O)c(O)c(O)c3)c2)[C@@H]1OC(=O)c1cc(O)c(O)c(OC(=O)c2cc(O)c(O)c(O)c2)c1)c1cc(O)c(O)c(OC(=O)c2cc(O)c(O)c(O)c2)c1` [Control, tannic acid, reference compound], the inhibition at 0.1 µM in the data set with SARS-CoV-2 virus (Severe acute respiratory syndrome coronavirus 2, Vero C1008, read-out: Inhibition rate (virus replication)) worked out at 54.1%.

For PF-07321332 [reference compound], the “Inhibition rate (virus replication)” value in the data set on SARS-CoV-2 virus (0.1 µM) is reported as 72.9%.
